These results are taken from patent US20250197864A1, “LNCRNA TRANSCRIPTS IN MELANOMAGENESIS” (The Regents of the University of California, priority 2021, published 2025).

The test system of series [1] is SW1271 lung cancer cell line. Put plainly: Cell viability assay (ATP quantitation). The format is cell-based. Particulars: 50 nM, 5 days, vs non-targeting control. How it is done: (§1) EsiRNA, siRNA and ASO GapmeRs were transfected in a final concentration of 50 nM unless mentioned otherwise and the transfection reagent Lipofectamine 3000 (2 ul/ml) was added according to the manufacturer's instructions.
(§2) Dependent on cell doubling time, 0.7-2×10^^3 cells were seeded in 96 well plates. 1 day after seeding cells were incubated in media with oligonucleotide concentration and/or MEKi and transfection reagent. 3 (synergy experiments) or 5 (solely ASO) days after transfection Total luminescence was measured on the SynergyHT plate reader (BioTek) using Gen5 software.

In series [2] the test system is H1299 lung cancer cell line. Nature of the series: Cell viability assay (ATP quantitation). Format: cell-based. Particulars: 50 nM, 5 days, vs non-targeting control. As for the experimental part:
as §1, §2

Series [3] relates to Sk-Mel-5 melanoma cell line. Nature of the series: Cell viability assay (ATP quantitation). The format is cell-based. Particulars: 50 nM, 5 days, vs non-targeting control. How it is done:
as §1, §2

The test system of series [4] is Hs940.T melanoma cell line. Put plainly: Cell viability assay (ATP quantitation). The conditions noted are these: 50 nM, 5 days, vs non-targeting control. The format is cell-based. How it is done: as §1, §2
In series [5] the test system is WM3060 melanoma cell line. Nature of the series: Cell viability assay (ATP quantitation). Format: cell-based. Particulars: 50 nM, 5 days, vs non-targeting control. As for the experimental part:
as §1, §2

Series [6] has as its system U138-MG Glioblastoma cell line. Nature of the series: Cell viability assay (ATP quantitation). Format: cell-based. The conditions noted are these: 50 nM, 5 days, vs non-targeting control. How it is done:
as §1, §2

The subject of series [7] is U20S osteosarcoma cell line. Nature of the series: Cell viability assay (ATP quantitation). Format: cell-based. The conditions noted are these: 50 nM, 5 days, vs non-targeting control. As for the experimental part:
as §1, §2

A further series concerns A375 melanoma cell line. Nature of the series: Cell viability assay (ATP quantitation). Format: cell-based. The conditions noted are these: 50 nM, 5 days, vs non-targeting control. As for the experimental part:
as §1, §2

For series [8], the system named is H2228 lung cancer cell line. Nature of the series: Cell viability assay (ATP quantitation). The format is cell-based. Particulars: 50 nM, 5 days, vs non-targeting control. How it is done: as §1, §2
A further series concerns MM485 melanoma cell line. Put plainly: Cell viability assay (ATP quantitation). Format: cell-based. Particulars: 50 nM, 5 days, vs non-targeting control. How it is done:
as §1, §2

In series [9] the test system is Sk-N-AS Neuroblastoma cell line. Nature of the series: Cell viability assay (ATP quantitation). Format: cell-based. The conditions noted are these: 50 nM, 5 days, vs non-targeting control. As for the experimental part:
as §1, §2

Series [10] deals with U87-MG Glioblastoma cell line. Nature of the series: Cell viability assay (ATP quantitation). The format is cell-based. Particulars: 50 nM, 5 days, vs non-targeting control. As for the experimental part:
as §1, §2

The subject of series [11] is H929 multiple myeloma cell line. Nature of the series: Cell viability assay (ATP quantitation). The format is cell-based. The conditions noted are these: 50 nM, 5 days, vs non-targeting control. How it is done: as §1, §2
Series [12] deals with HCT116 colon carcinoma cell line. Put plainly: Cell viability assay (ATP quantitation). Format: cell-based. Particulars: 50 nM, 5 days, vs non-targeting control. How it is done:
as §1, §2

The test system of series [13] is A-172 Glioblastoma cell line. Nature of the series: Cell viability assay (ATP quantitation). Format: cell-based. Particulars: 50 nM, 5 days, vs non-targeting control. As for the experimental part: as §1, §2
Series [14] has as its system H82 lung cancer cell line. Nature of the series: Cell viability assay (ATP quantitation). Format: cell-based. Particulars: 50 nM, 5 days, vs non-targeting control. How it is done:
as §1, §2

A further series deals with AV4 melanoma cell line. Nature of the series: Cell viability assay (ATP quantitation). The format is cell-based. The conditions noted are these: 50 nM, 5 days, vs non-targeting control. As for the experimental part: as §1, §2
Series [15] deals with T98G Glioblastoma cell line. Nature of the series: Cell viability assay (ATP quantitation). Format: cell-based. Particulars: 50 nM, 5 days, vs non-targeting control. How it is done: as §1, §2
Series [16] deals with SW480 colon carcinoma cell line. Nature of the series: Cell viability assay (ATP quantitation). The format is cell-based. The conditions noted are these: 50 nM, 5 days, vs non-targeting control. As for the experimental part:
as §1, §2

Series [17] relates to MM415RM trametinib resistant melanoma cell line. Nature of the series: Cell viability assay (ATP quantitation). Format: cell-based. The conditions noted are these: 50 nM, 5 days, vs non-targeting control.
From the text: (§3) Human melanoma cell line VMM39 was purchased from American Type Culture Collection (ATCC). Human melanoma cell lines D04, MM415, WM1366, WM3629, WM3211, Sk-Mel-2 and Sk-Mel-28 were a generous gift from Boris Bastian at the University of California, San Francisco. Primary human melanoma cell line Hs852.T was purchased from the Cell Culture Core Facility (CCCF) at the University of California, San Francisco. Primary human melanoma cell line AV5 was obtained from metastasis of a melanoma patient. All experimental protocols were approved by UCSF Human Research Protection Program Institutional Review Board (IRB #12-0948), all patients signed informed consent, and methods were carried out in accordance with relevant guidelines and regulations. Resistant cell lines DO4RM, MM415RM, Sk-Mel-2RM and WM3629RM were established as previously described. [Sanlorenzo, M. et al., The lincRNA MIRAT binds to IQGAPI and modulates the MAPK pathway in NRAS mutant melanoma. Sci Rep 8, 10902 (2018).] Primary human melanocytic cell lines (PHM) from infant foreskin of five healthy donors were available in our cell repository and pooled. Melanoma cell lines were maintained in RPMI 1640 media supplemented with 10% (vol/vol) heat inactivated fetal bovine serum. Melanocytes were maintained in M254 medium with HMGS supplements (1× final solution). All cell lines were incubated at 37° C. under 5% CO2.
as §1, §2

The subject of series [18] is WM3629RM trametinib resistant melanoma cell line. Nature of the series: Cell viability assay (ATP quantitation). The format is cell-based. Particulars: 50 nM, 5 days, vs non-targeting control.
From the text: as §3, §1, §2

Series [19] has as its system D04RM trametinib resistant melanoma cell line. Nature of the series: Cell viability assay (ATP quantitation). Format: cell-based. The conditions noted are these: 50 nM, 5 days, vs non-targeting control.
From the text: as §3, §1, §2

Series [20] deals with Sk-Mel-2-RM trametinib resistant melanoma cell line. Put plainly: Cell viability assay (ATP quantitation). The conditions noted are these: 50 nM, 5 days, vs non-targeting control. Format: cell-based.
From the text: as §3, §1, §2

Series [21] concerns AV5 primary melanoma cell line. Nature of the series: Cell viability assay (ATP quantitation). The format is cell-based, human. Particulars: 50 nM, 5 days (120 hrs), vs non-targeting control. How it is done: as §1, §2
In the next series the test system is D04 melanoma cell line. Nature of the series: Cell viability assay (ATP quantitation). Particulars: 50 nM, 5 days (120 hrs), vs non-targeting control. Format: cell-based, human. How it is done: as §1, §2
Series [22] has as its system Sk-Mel-28 melanoma cell line. Nature of the series: Cell viability assay (ATP quantitation). The format is cell-based, human. The conditions noted are these: 50 nM, 5 days (120 hrs), vs non-targeting control. As for the experimental part: as §1, §2
Series [23] relates to WM3211 melanoma cell line. Nature of the series: Cell viability assay (ATP quantitation). Format: cell-based, human. The conditions noted are these: 50 nM, 5 days (120 hrs), vs non-targeting control. How it is done:
as §1, §2

A further series concerns MM415 melanoma cell line. Nature of the series: Cell viability assay (ATP quantitation). Format: cell-based, human. Particulars: 50 nM, 5 days (120 hrs), vs non-targeting control. How it is done: as §1, §2
In series [24] the test system is Hs852.T primary melanoma cell line. Put plainly: Cell viability assay (ATP quantitation). The format is cell-based, human. The conditions noted are these: 50 nM, 5 days (120 hrs), vs non-targeting control. How it is done:
as §1, §2

Series [25] has as its system Sk-Mel-2 melanoma cell line. Put plainly: Cell viability assay (ATP quantitation). Format: cell-based, human. Particulars: 50 nM, 5 days (120 hrs), vs non-targeting control. As for the experimental part:
as §1, §2

A further series relates to VMM39 melanoma cell line. Put plainly: Cell viability assay (ATP quantitation). The format is cell-based, human. Particulars: 50 nM, 5 days (120 hrs), vs non-targeting control. How it is done:
as §1, §2

The test system of series [26] is WM3629 melanoma cell line. Nature of the series: Cell viability assay (ATP quantitation). Format: cell-based, human. Particulars: 50 nM, 5 days (120 hrs), vs non-targeting control. How it is done: as §1, §2
For series [27], the system named is WM1366 melanoma cell line. Nature of the series: Cell viability assay (ATP quantitation). The format is cell-based, human. The conditions noted are these: 50 nM, 5 days (120 hrs), vs non-targeting control. As for the experimental part:
as §1, §2

The next series concerns melanoma cell lines. Nature of the series: Cell viability assay (ATP quantitation), melanoma panel. The conditions noted are these: 50 nM oligonucleotide, 72 hours, vs non-targeting pooled siRNA. The format is cell-based, human.
From the text: as §3, with “Melanoma cell lines were maintained in RPMI 1640 media supplemented with 10% (vol/vol) heat inactivated fetal bovine serum. Melanocytes were maintained in M254 medium with HMGS supplements (1× final solution). All cell lines were incubated at 37° C. under 5% CO2.” left out
Dependent on cell doubling time, 0.7-2×10^^3 cells were seeded in 96 well plates. […] 3 (synergy experiments) or 5 (solely ASO) days after transfection Total luminescence was measured on the SynergyHT plate reader (BioTek) using Gen5 software.

The subject of series [28] is AC004540.4 (TRASH) in D04 cells. Nature of the series: MEK-inhibitor-induced upregulation, RT-qPCR. Format: cell-based, human. The conditions noted are these: 72 hours, vs DMSO, normalized to GAPDH. As for the experimental part: (§4) TRIzol, Phenol:chloroform:isoamyl alcohol (125:24:1) or NucleoSpin RNA kit (TaKaRa) was used for extracting Total RNA from cells and tissues according to the manufacturer's instructions. Total RNA was quantified by NanoDrop ND-1000 (Thermo Scientific) or Quibit 4 (Thermo Fisher). 50 ng or RNA was reverse transcribed using the cDNA synthesis and gDNA removal QuantiTect Reverse Transcription Kit. Real time PCR was performed using the iTaq Universal SYBR Green Supermix, 10 ng (20 ng for RIP Assay) of cDNA and on a QuantStudio™ 5 Real-Time PCR System or a 7500 fast real time PCR system. Relative gene expression was calculated using the comparative Ct method, normalized to GAPDH or β-actin. Primer sequences are listed in Supplementary Table 1.
(§5) Cells were either treated with trametinib (MEKi) or DMSO (control). Treatment period was 72 hours. CT-values were normalized to GAPDH, error bars represent standard deviation. All experiments were performed in triplicates (n=3/group). (FIG. 5b)

In series [29] the test system is AC004540.4 (TRASH) in MM415 cells. Nature of the series: MEK-inhibitor-induced upregulation, RT-qPCR. The format is cell-based, human. The conditions noted are these: 72 hours, vs DMSO. How it is done: as §4, §5

For “AAGGAGGGTAAACGCT (chemistry not given here) [SEQ ID NO: 13, Antisense oligonucleotide targeting BX470102.3-008]”, the cell viability decrease result in [1], in [2], in series [3], in [4], in [5] and in series [6] was “significant cell viability decrease” each time. Further, the cell viability decrease entry (in series [7]; in the series with A375 melanoma cell line; in [8]; in the series with MM485 melanoma cell line; in series [9]; in [10]) was “significant cell viability decrease” each time. In addition, the cell viability decrease entry (in [11]; in series [12]; in [13]; in series [14]; with AV4 melanoma cell line; in series [15]) was “significant cell viability decrease” each time. In addition, the cell viability decrease result in series [16], in series [17], in series [18], in series [19], in series [20] and in series [21] was “significant cell viability decrease” in each case. Further, the cell viability decrease result (in the series with D04 melanoma cell line; in series [22]; in [23]; in the series on MM415 melanoma cell line; in [24]; in series [25]) was “significant cell viability decrease” each time. Besides, the cell viability decrease entry (in the series on VMM39 melanoma cell line; in series [26]; in [27]) was “significant cell viability decrease” each time.
“5′-ACAAAGAGAGACAGGAAAUUU-3′ (chain 2 AUUUCCUGUCUCUCUUUGUUU; listed as RNA, chemistry not given here) [SEQ ID NO:45]”: the “cell viability decrease (RNAi screening)” value in the series on melanoma cell lines is recorded as “significant cell viability decrease”. Further, the cell viability decrease entry in the series on D04 melanoma cell line and with MM415 melanoma cell line was “significant cell viability decrease” throughout.
Take `CC(=O)Nc1cccc(-n2c(=O)n(C3CC3)c(=O)c3c(Nc4ccc(I)cc4F)n(C)c(=O)c(C)c32)c1` [trametinib]: the “AC004540.4 (TRASH) upregulation” value in series [28] (20 nM MEKi) was 3.2 fold. In addition, in series [28] (40 nM MEKi), the “AC004540.4 (TRASH) enrichment” value stood at 5.4 fold. In addition, the “increase of AC004540.4 (TRASH)-expression” value in [29] (20 nM MEKi) is on record as 0.31 fold; in series [29] (second MEKi concentration (not given)), 0.36 fold.
